Values quoted from earlier work, collected in article PMC4506092, “Utilizing Chemical Genomics to Identify Cytochrome b as a Novel Drug Target for Chagas Disease” (PLoS Pathogens, 2015).

Test system: T. cruzi infection
Conditions: cited from earlier work; for Parasitological cure rates: Chagas disease patients, clinical testing

CC[C@@H]([C@H](C)O)n1ncn(-c2ccc(N3CCN(c4ccc(OC[C@@H]5CO[C@@](Cn6cncn6)(c6ccc(F)cc6F)C5)cc4)CC3)cc2)c1=O [posaconazole]
Parasitological cure rates: 20–30% | Patients with recrudescence of infection (Chagas patients, 60-day treatment, determined by PCR): 81%

C[C@@H](c1nc(-c2ccc(C#N)cc2)cs1)[C@@](Cn1cncn1)(OCOP(=O)(O)O)c1ccc(F)cc1F [Compound E1224]
Parasitological cure rates: 20–30% | Patients with failure to cure infection (treated Chagas patients): ~ 70%
